Assay results: US5981558A, “DC107 derivatives” (Kyowa Hakko Kogyo Co., Ltd., priority 1996, dated 1999)

tested on: Sarcoma 180 mouse solid tumor; experiment: Antitumor activity against Sarcoma 180 mouse solid tumor; type: in vivo, mouse (ddY); settings: Sarcoma-180, iv, 168 h, read-out: T/C (tumor volume ratio treated/control)
Method: To a ddY mouse were intraperitoneally transplanted 5×10^6 sarcoma 180 cells. On the seventh day from the transplant, the cells were collected from the ascites, washed once with sterilized physiological saline, and then diluted with sterilized physiological saline to prepare a cell suspension having a concentration of 5×10^7 cells/mL. This suspension was transplanted in an amount of 0.01 mL to a subcutaneous part of the right axilla of each of male ddY mice each weighing 20±1 g.
A test compound was dissolved in physiological saline containing polyoxyethylene sorbitan monolaurate. At 24 hours after the tumor transplant, 0.2 mL of the solution was intravenously administered to the tail of each of a group of five mice.

| Compound | response vs control in vivo at 2 mg/kg [%] | response vs control in vivo at 8 mg/kg [%] | response vs control in vivo at 4 mg/kg [%] | response vs control in vivo at 16 mg/kg [%] | response vs control in vivo at 32 mg/kg [%] |
| --- | --- | --- | --- | --- | --- |
| COC(=O)[C@H](CCC(=O)OCSC(=O)C(C)(O)C12CCC(C)=CC(O)C(=O)C=CC=Cc3csc(n3)C(C)N(C(=O)C1)[S+]2[O-])NC(=O)C1(C)COC(C)(C)OC1 (stereo partly shown) [Compound 27] | 46 |  |  |  |  |
| COCCOCCOCCOCCOCCOCC(=O)OCSC(=O)C(C)(O)C12CC/C(C)=C/C(O)C(=O)/C=C/C=C\c3csc(n3)C(C)N(C(=O)C1)[S+]2[O-] (stereo not shown) [Compound 37] |  | 36 |  |  |  |
| C/C1=C\C(O)C(=O)/C=C/C=C\c2csc(n2)C(C)N2C(=O)CC(C(C)(O)C(=O)SCOC(=O)CCCNC(=O)C3(C)COC(C)(C)OC3)(CC1)[S+]2[O-] (stereo not shown) [Compound 138] |  |  | 34 |  |  |
| C/C1=C\C(O)C(=O)/C=C/C=C\c2csc(n2)C(C)N2C(=O)CC(C(C)(O)C(=O)SCOC(=O)CCCNC(=O)[C@@]34O[C@@H](CO)[C@@H](O)[C@@H]3OC(C)(C)O4)(CC1)[S+]2[O-] (stereo partly shown) [Compound 141] |  |  | 31 |  |  |
| C/C1=C\C(O)C(=O)/C=C/C=C\c2csc(n2)C(C)N2C(=O)CC(C(C)(O)C(=O)SCOC(=O)OCCN3CCCC3=O)(CC1)[S+]2[O-] (stereo not shown) [Compound 146] |  |  | 38 |  |  |
| COCCOCCOCCOCC(=O)OCSC(=O)C(C)(O)C12CC/C(C)=C/C(O)C(=O)/C=C/C=C\c3csc(n3)C(C)N(C(=O)C1)[S+]2[O-] (stereo not shown) [Compound 147] | 43 |  |  |  |  |
| COCCOCCOCCOC(=O)OCSC(=O)C(C)(O)C12CC/C(C)=C/C(O)C(=O)/C=C/C=C\c3csc(n3)C(C)N(C(=O)C1)[S+]2[O-] (stereo not shown) [Compound 149] |  | 42 |  |  |  |
| C/C1=C\C(O)C(=O)/C=C/C=C\c2csc(n2)C(C)N2C(=O)CC(C(C)(O)C(=O)SCc3oc(=O)oc3CO[C@@H]3C[C@@H](O)[C@H](O)[C@@H](CO)O3)(CC1)[S+]2[O-] (stereo partly shown) [Compound 152] |  |  |  | 17 |  |
| C/C1=C\C(O)C(=O)/C=C/C=C\c2csc(n2)C(C)N2C(=O)CC(C(C)(O)C(=O)SCc3oc(=O)oc3CO[C@@H]3C[C@H](O)[C@@H](O)[C@H](C)O3)(CC1)[S+]2[O-] (stereo partly shown) [Compound 154] |  |  | 40 |  |  |
| C/C1=C\C(O)C(=O)/C=C/C=C\c2csc(n2)C(C)N2C(=O)CC(C(C)(O)C(=O)SCc3oc(=O)oc3CO[C@H]3C[C@H](O)[C@@H](O)[C@H](C)O3)(CC1)[S+]2[O-] (stereo partly shown) [Compound 155] |  | 37 |  |  |  |
| C/C1=C\C(OC2CCCCO2)C(=O)/C=C/C=C\c2csc(n2)C(C)N2C(=O)CC(C(C)(O)C(=O)SCc3oc(=O)oc3COC(=O)CN(C)C)(CC1)[S+]2[O-] (stereo not shown) [Compound 159] |  |  |  |  | 33 |

tested on: HeLa S3 cells; experiment: HeLa S3 Cell Growth Inhibition Test; type: cell-based; settings: Homo sapiens, HeLa S3, 72 h, HeLa S3; 72 hours incubation; Neutral Red; read-out: IC50, HeLa S3 cell growth inhibition
Method: In each well of a 96-well microtiter plate was placed 0.1 mL of HeLa S3 cells having a concentration of 8×10^3 cells/mL and prepared in an MEM culture medium containing 10% fetal bovine serum and 2 mM glutamine. After the cells were incubated overnight at 37° C. in a carbon dioxide incubator, a test compound suitably diluted with a medium was added to the wells in an amount of 0.05 mL for each well. The cells were incubated at 37° C. for 72 hours in a carbon dioxide incubator. After the culture supernatant was removed, 0.1 mL of a culture medium containing 0.02% Neutral Red was added to each well. The cells were then incubated at 37° C. for 1 hour in a carbon dioxide incubator to dye the cells. After the culture supernatant was removed, each residue was rinsed once with physiological saline and the pigment was extracted with 0.001 N hydrochloric acid/30% ethanol. The absorbance at 550 nm of each extract was measured with a microplate reader. The drug concentration required for the 50% inhibition of cell growth, which is referred to as IC50, was calculated by comparing the absorbance for untreated cells with those for cells treated with the drug in known concentrations.

| Compound | IC50 [nM] |
| --- | --- |
| CC(=O)OCc1oc(=O)oc1CSC(=O)C(C)(O)C12CC/C(C)=C/C(O)C(=O)/C=C/C=C\c3csc(n3)C(C)N(C(=O)C1)[S+]2[O-] (stereo not shown) [Compound 90] | 130 |
| CC(=O)OCc1oc(=O)oc1CSC(=O)C(C)(O)C12CC/C(C)=C/C(OC3CCCCO3)C(=O)/C=C/C=C\c3csc(n3)C(C)N(C(=O)C1)[S+]2[O-] (stereo not shown) [Compound 91] | 51 |
| CC(=O)NCC(=O)OCc1oc(=O)oc1CSC(=O)C(C)(O)C12CC/C(C)=C/C(O)C(=O)/C=C/C=C\c3csc(n3)C(C)N(C(=O)C1)[S+]2[O-] (stereo not shown) [Compound 97] | 120 |
| COCCOCCOCC(=O)OCc1oc(=O)oc1CSC(=O)C(C)(O)C12CC/C(C)=C/C(OC3(OC)CCOCC3)C(=O)/C=C/C=C\c3csc(n3)C(C)N(C(=O)C1)[S+]2[O-] (stereo not shown) [Compound 103] | 26 |
| COCCOCCOCCOCC(=O)OCc1oc(=O)oc1CSC(=O)C(C)(O)C12CC/C(C)=C/C(OC3CCCCO3)C(=O)/C=C/C=C\c3csc(n3)C(C)N(C(=O)C1)[S+]2[O-] (stereo not shown) [Compound 104] | 20 |
| COC(=O)OCc1oc(=O)oc1CSC(=O)C(C)(O)C12CC/C(C)=C/C(OC3CCCCO3)C(=O)/C=C/C=C\c3csc(n3)C(C)N(C(=O)C1)[S+]2[O-] (stereo not shown) [Compound 106] | 11 |
| C=C(CSC(=O)C(C)(O)C12CC/C(C)=C/C(OC3(OC)CCOCC3)C(=O)/C=C/C=C\c3csc(n3)C(C)N(C(=O)C1)[S+]2[O-])C(=O)OC (stereo not shown) [Compound 113] | 42 |
| C=C(CSC(=O)C(C)(O)C12CC/C(C)=C/C(O)C(=O)/C=C/C=C\c3csc(n3)C(C)N(C(=O)C1)[S+]2[O-])C(=O)O (stereo not shown) [Compound 115] | > 10000 |
| C=C(CSC(=O)C(C)(O)C12CC/C(C)=C/C(OC3(OC)CCOCC3)C(=O)/C=C/C=C\c3csc(n3)C(C)N(C(=O)C1)[S+]2[O-])C(=O)O (stereo not shown) [Compound 116] | 8500 |
| CCC/C=C(\CSC(=O)C(C)(O)C12CC/C(C)=C/C(OC3(OC)CCOCC3)C(=O)/C=C/C=C\c3csc(n3)C(C)N(C(=O)C1)[S+]2[O-])C(=O)OC (stereo not shown) [Compound 119] | 870 |
| CC1=C(CSC(=O)C(C)(O)C23CC/C(C)=C/C(O)C(=O)/C=C/C=C\c4csc(n4)C(C)N(C(=O)C2)[S+]3[O-])C(=O)OC(C)(C)O1 (stereo not shown) [Compound 121] | 1500 |
| CC1=C(CSC(=O)C(C)(O)C23CC/C(C)=C/C(O)C(=O)/C=C/C=C\c4csc(n4)C(C)N(C(=O)C2)[S+]3[O-])C(=O)OC2(CCOCC2)O1 (stereo not shown) [Compound 124] | 960 |

same assay, conditions: Homo sapiens, HeLa S3, 72 h, read-out: IC50, HeLa S3 cell growth inhibition, HeLa S3; 72 hours incubation; Neutral Red

| Compound | IC50 [nM] |
| --- | --- |
| C/C1=C\C(OC2CCCCO2)C(=O)/C=C/C=C\c2csc(n2)C(C)N2C(=O)CC(C(C)(O)C(=O)SCc3oc(=O)oc3COC=O)(CC1)[S+]2[O-] (stereo not shown) [Compound 89] | 41 |
| C/C1=C\C(OC2CCCCO2)C(=O)/C=C/C=C\c2csc(n2)C(C)N2C(=O)CC(C(C)(O)C(=O)SCc3oc(=O)oc3COC(=O)CN(C)C)(CC1)[S+]2[O-] (stereo not shown) [Compound 92] | 2.7 |
| C/C1=C\C(OC2CCCCO2)C(=O)/C=C/C=C\c2csc(n2)C(C)N2C(=O)CC(C(C)(O)C(=O)SCc3oc(=O)oc3COC(=O)c3cccnc3)(CC1)[S+]2[O-] (stereo not shown) [Compound 93] | 9.2 |
| C/C1=C\C(OC2CCCCO2)C(=O)/C=C/C=C\c2csc(n2)C(C)N2C(=O)CC(C(C)(O)C(=O)SCc3oc(=O)oc3COC(=O)CCC(=O)O)(CC1)[S+]2[O-] (stereo not shown) [Compound 95] | 27 |
| C/C1=C\C(O)C(=O)/C=C/C=C\c2csc(n2)C(C)N2C(=O)CC(C(C)(O)C(=O)SCc3oc(=O)oc3COC(=O)C(C)(C)NC(=O)OC(C)(C)C)(CC1)[S+]2[O-] (stereo not shown) [Compound 96] | 29 |
| C/C1=C\C(OC2CCCCO2)C(=O)/C=C/C=C\c2csc(n2)C(C)N2C(=O)CC(C(C)(O)C(=O)SCc3oc(=O)oc3COC(=O)Oc3ccc([N+](=O)[O-])cc3)(CC1)[S+]2[O-] (stereo not shown) [Compound 107] | 21 |
| CCCCNC(=O)OCc1oc(=O)oc1CSC(=O)C(C)(O)C12CC/C(C)=C/C(OC3CCCCO3)C(=O)/C=C/C=C\c3csc(n3)C(C)N(C(=O)C1)[S+]2[O-] (stereo not shown) [Compound 108] | 13 |
| C/C1=C\C(OC2CCCCO2)C(=O)/C=C/C=C\c2csc(n2)C(C)N2C(=O)CC(C(C)(O)C(=O)SCc3oc(=O)oc3COC(=O)N3CCN(C)CC3)(CC1)[S+]2[O-] (stereo not shown) [Compound 109] | 52 |
| C/C1=C\C(OC2CCCCO2)C(=O)/C=C/C=C\c2csc(n2)C(C)N2C(=O)CC(C(C)(O)C(=O)SCc3oc(=O)oc3COC(=O)NCCO)(CC1)[S+]2[O-] (stereo not shown) [Compound 110] | 22 |
| C=C(CSC(=O)C(C)(O)C12CC/C(C)=C/C(O)C(=O)/C=C/C=C\c3csc(n3)C(C)N(C(=O)C1)[S+]2[O-])C(=O)OC (stereo not shown) [Compound 111] | 20 |
| C=C(CSC(=O)C(C)(O)C12CC/C(C)=C/C(O)C(=O)/C=C/C=C\c3csc(n3)C(C)N(C(=O)C1)[S+]2[O-])C(=O)N1CCCCC1 (stereo not shown) [Compound 117] | 2100 |
| CCC/C=C(\CSC(=O)C(C)(O)C12CC/C(C)=C/C(O)C(=O)/C=C/C=C\c3csc(n3)C(C)N(C(=O)C1)[S+]2[O-])C(=O)OC (stereo not shown) [Compound 118] | 580 |
| COC(=O)/C(=C/c1ccccc1)CSC(=O)C(C)(O)C12CC/C(C)=C/C(O)C(=O)/C=C/C=C\c3csc(n3)C(C)N(C(=O)C1)[S+]2[O-] (stereo not shown) [Compound 120] | 270 |

same assay, conditions: Homo sapiens; HeLa S3; 72 hours incubation; Neutral Red; read-out: IC50, HeLa S3 cell growth inhibition

| Compound | IC50 [nM] |
| --- | --- |
| CC[Si](CC)(CC)OCc1oc(=O)oc1CSC(=O)C(C)(O)C12CC/C(C)=C/C(O)C(=O)/C=C/C=C\c3csc(n3)C(C)N(C(=O)C1)[S+]2[O-] (stereo not shown) [Compound 75] | 240 |
| CC[Si](CC)(CC)OCc1oc(=O)oc1CSC(=O)C(C)(O)C12CC/C(C)=C/C(OC3CCCCO3)C(=O)/C=C/C=C\c3csc(n3)C(C)N(C(=O)C1)[S+]2[O-] (stereo not shown) [Compound 76] | 260 |
| CC[Si](CC)(CC)OC[C@H]1OC(OCc2oc(=O)oc2CSC(=O)C(C)(O)C23CC/C(C)=C/C(O)C(=O)/C=C/C=C\c4csc(n4)C(C)N(C(=O)C2)[S+]3[O-])C[C@@H](O[Si](CC)(CC)CC)[C@@H]1O[Si](CC)(CC)CC (stereo partly shown) [Compound 81] | 210 |
| CCOC(=O)N1CCC2(CC1)OC(=O)C(CSC(=O)C(C)(O)C13CC/C(C)=C/C(O)C(=O)/C=C/C=C\c4csc(n4)C(C)N(C(=O)C1)[S+]3[O-])=C(C)O2 (stereo not shown) [Compound 126] | 5500 |
